According to US20020055130A1, “Method and product for regulating apoptosis” (National Jewish Center for Immunology and Respiratory …, priority 1997, published 2002):

Tests used:
REF52 cells = experiment: MEKK-induced apoptosis, microinjected REF52 cells; type: cell-based
Description: (§1) Cells were prepared for the apoptosis studies as follows. Swiss 3T3 cells and REF52 cells were transfected with an expression plasmid encoding β-Galactoctosidase (β-Gal) detection of injected cells. One set of β-Gal transfected cells were then microinjected with an expression vector encoding MEKK1 370-738 protein. Another set of β-Gal transfected cells were then microinjected with an expression vector encoding truncated BXB-Raf protein.
(§2) A first group of transfected Swiss 3T3 cells and REF52 cells were treated with 50 μM beauvericin for 6 hours at 37° C. Beauvericin is a compound known to induce apoptosis in mammalian cells. A second group of cells were treated with a control buffer lacking beauvericin. The treated cells were then fixed in parafornaldehyde and permeabilized with saponin using protocols standard in the art. The permeabilized cells were then labelled by incubating the cells with a fluorescein-labelled anti-tubulin antibody (1:500; obtained from GIBCO, Gaithersburg, Md.) to detect cytoplasmic shrinkage or 10 μM propidium iodide (obtained from Sigma, St. Louis, Mo.) to stain DNA to detect nuclear condensation. The labelled cells were then viewed by differential fluorescent imaging using a Nikon Diaphot fluorescent microscope. […]

Swiss 3T3 cells = experiment: MEKK-induced apoptosis, microinjected Swiss 3T3 cells; type: cell-based
Description: as §1, §2

HEK293 cells = experiment: MEKK1 staining and TdT-mediated dUTP incorporation (DNA fragmentation) in transfected cells; type: cell-based, Human; conditions: after 48 hr
Description: Human embryonal kidney 293 cells (HEK293) stably expressing the EBNA-1 protein from Epstein-Barr virus (Invitrogen) were grown in Dulbecco's modified Eagle's medium (DMEM) supplemented with 100 U/ml penicillin/streptomycin and containing 10% bovine calf serum (BCS). The cells were transfected using lipofectamine (Gibco).
Cells were grown on glass coverslips and transfected using lipofectamine. Two days after transfection, the medium was removed and the cells were fixed in 2% paraformaldehyde, 3% sucrose in phosphate buffered saline (PBS) for 10 min at room temperature. Following three washes with PBS, the cells were permeabilized for 10 min with 2% Triton-X100 in PBS. After three PBS washes, the cells were blocked with filtered cultured medium for 15 min. The coverslips were then incubated 1 hour in TdT reaction mix (200 mM potassium cacodylate, 25 mM Tris.HCl, pH 6.6, 250 μg/ml BSA, 5 mM CoCl2, 0.25 U/μl TdT [Boehringer], 10 μM biotin-dUTP [Boehringer]) at 37° C. in a humidifed atmosphere. […] Images were taken using a Leica DMRXA microscope and analyzed with the SlideBook v2.0 software (Intelligent Imaging Innovations, Denver). […]

p38 kinase = p38 kinase activation, transfected HEK293 cells; type: cell-based, Human; conditions: transfection in HEK293 cells
L929 fibroblasts = experiment: TNF and MEKK1COOH synergy, percentage of apoptotic cells (Lac Switch clones); type: cell-based, murine; conditions: control L929 cells (4.1 LAC1), presence and absence of IPTG
Description: Approximately 20% of control L929 cells became apoptotic upon TNF exposure either in the presence and absence of IPTG. In L929 cells expressing the MEKK1COOH domain, exposure to TNF and IPTG increased the percentage of apoptotic cells to 40%, approximately a 2-fold increase.

L929 cells = experiment: TNFα-mediated apoptosis of L929 cells (neutral red assay, propidium iodide staining); type: cell-based, murine
Description: Cell lines and culture. L929 cells (ATCC CCL1 were maintained in Dulbecco's modified Eagle's medium with 5% newborn claf serum and 5% bovine calf serum (BCS) supplemented with 100 ug/ml streptomycin and 100U/ml penicillin. The cells were grown in 10 cm dishes at 37° C. in 7.5% CO2. Cells were made quiescent where indicated by incubation in Dulbecco's modified Eagle's medium and 0.1% bovine serum albumin for 24 h. Recombinant murine TNFα and recombinant humanbFGF (147aa) were from R&D Systems, Minneapolis, Minn. Cells were pretreated where indicated with the MEK-1 inhibitor PD#098059 (Parke-Davis Pharmaceutical Corp. Ann Arbor, Mich.) for 1 h at 37° C. Cells were stimulated by incubation with the indicated cytokine or growth factor for various times at 37° C. […] Stimulation was stopped by rinsing the plates twice with ice cold phosphate buffered saline (PBS) and lysing the cells in the appropriate lysis buffer. Cells were scraped from the plates and nuclei were pelleted for 10 min at 14,000 RPM in a microcentrifuge.
Neutral Red Assay Uptake of the dye neutral red was used as one measure of cell viability following cytokine or growth factor treatment (Finter, N. B. (1969) J. Gen Virol. 5:419-427). 1.5×10^4-2.5×10^5 L929 cells/well were plated in 12 well tissue culture dishes in 1.25 ml of media. Cells were treated for 15-20 hr with various concentrations of TNFα and/or bFGF. 2.5 μl of 1% neutral red was added to the wells and incubated for 2 hr at 37° C. PBS. The neutral red was extracted with 1.0 ml of 50% ethanol, 50 mM Na-citrate pH 4.2 and absorbency was measured at […].
Propidium iodide staining Cells were plated on glass chamber slides (Nunc, Naperville, Ill.) at a concentration of 0.2-0.6×10^5 cells/ml. Ras expression was induced with 5 mM IPTG in Dulbecco's modified Eagle's medium with 0.1% BCS for 8-12 hr. Cells were exposed to TNFα (5 ng/ml) and/or bFGF (500 pg/ml) in Dulbecco's modified Eagle's medium with 0.1% BCS for 16 hr. The parental LACI expressing cell line (see below) was used as a control. Cells were washed twice in PBS, fixed in acetone:methanol (1:1) −20° C. for 5 min, air dried, washed twice in PBS, stained with 1 μg/ml propidium iodide (PI) in PBS for 20 min, washed in PBS, washed in H2O and mounted in 25% glycerol/PBS. PI fluorescence was observed using a Nikon inverted microscope equipped with epifluorescence and a […] filter. Images were analyzed using IP lab.

JNK = JNK assay (solid state kinase assay with GST-Jun), L929 cells; type: cell-based, murine
Description: JNK assay. JNK activity was measured using a solid state kinase assay in which glutathione S-transferase-c-Jun(1-79) (GST-JUN) cound to glutathione-Sepharose 4B beads was used to affinity pruify JNK and then JNK activity was measured in an in vitro kinase assay using the sepharose bound GST-Jun as a substrate (Hibi, M., et al. (1993) Genes & Development 7:2135-2148). Stimulated or unstimulated cells were lysed in 0.5% Nonidet P-40, 20 mM HEPES pH 7.2, 100 mM NaCl, 2 mM dithiothreitol, lmM EDTA, 1.0 mM phenylmethylsulfonylfluoride, 1 μg/ml aprotinin and the nuclei pelleted. Lysates were normalized for protein content. […] Binding to GST-Jun efficiently isolates the two major forms of JNK (p45and p55) and under the conditions used JNK isolation was linear for 10-250 μg of cell lysate. The lysates were rotated at 4° C. for 1-3 h. Beads were washed twice in lysis buffer and then twice in PAN (10 mM PIPES, pH 7.0, 100 mM NaCl, 21 μg/ml aprotinin). Kinase reactions were carried out at 30° C. for 15 min in 20 mM Hepes pH 7.2, 20 mM β-glycerophosphate, 10 mMp-nitrophenyl phosphate, 10 mM MgCl2, 1 mM dithiothreitol, 50 μm sodium vanadate, 10 μCi γ^32P-ATP 4300 Ci/mmole. The kinase reaction was linear from 0-30 min.

p42/p44 MAPK = experiment: MAPK assay (EGFR662-681 peptide), L929 cells; type: cell-based, murine
Description: MAPK Assay MAPK activity was measured exactly as described previously (Gardner, A. M., et al. (1994) Meth. Enzymol. 238:258-270) with the exception that MonoQ FPLC fractionation was replaced by step elution from a DEAE-Sephacel column using 0.5 M NaCl in loading buffer. The eluate was assayed in triplicate using the epidermal growth factor receptor 662-681 peptide (EGFR662-681) as a selective substrate for MAPK activity (Heasley, L. E., et al. (1994) American Journal of Physiology (Renal Fluid Electrolyte Physiol. 36) 267:F366-F373).

B-Raf = experiment: Raf activation assay (kinase-inactive MEK-1 phosphorylation), L929 cells; type: cell-based, murine
Description: (§3) RafActivation Assay Cells were serum starved and challenged in the presence or absence of the appropriate cytokine or growth factors, as described above. Cells were lysed by scraping in ice cold RIPA buffer (50 mM Tris-HCl, pH 7.2, 150 mM NaCl, 0.1% SDS, 0.5% sodium deoxycholate, 1.0% Triton X-100, 10 mM sodium pyrophosphate, 25 mM β-glycerophosphate, 2 mM sodium vanadate, 2.1 µg/ml aprotinin) and the nuclei were pelletted. The supernatants were normalized for protein content and precleared with protein A Sepharose prior to immunoprecipitation with rabbit antiserum to the C terminus of C-Raf, rabbit anti-serum to A-Raf or rabbit antiserum to B-Raf (Santa Cruz Biotech., Santa Cruz, Calif.) and protein A Sepharose for 2-3 hr at 4° C. The beads were washed twice with ice cold RIPA and twice with PAN. A third of the immunoprecipitate was diluted with SDS sample buffer and used for immunoblot analysis. […] Wild-type recombinant MEK-1 was autophosphorylated in parallel as a marker. Reactions were terminated by the addition of 12.5 μl 5× SDS sample buffer, boiled, and subjected to SDS-PAGE and autoradiography.

C-Raf = experiment: as above; type: cell-based, murine
Description: as §3

In the case of “MEKK1 protein: MEKK1 370-738 protein expressed from a microinjected expression vector”, the “apoptotic morphology of expressing cells” value (REF52 cells) is reported as “underwent cytoplasmic shrinkage and nuclear condensation leading to apoptotic death” and the “apoptotic morphology of expressing cells” value (Swiss 3T3 cells) is reported as “underwent cytoplasmic shrinkage and nuclear condensation leading to apoptotic death”.
In the case of “MEKK1: full length 196 kDa mouse MEKK1, HA-tagged, expressed by transfection”, the MEKK1-expressing cells apoptotic (HEK293 cells) is reported as “about 30%” and the p38 kinase activation (p38 kinase) is reported as “did not activate the p38 kinase”.
With TNFα the “percentage of apoptotic cells” value (L929 fibroblasts) was “Approximately 20%”, the “time required to induce a similar level of L929 cell death” value (L929 cells; 1 ng/ml) was 24 to 48 h and the “L929 cells being apoptotic” value (L929 cells; 10 ng/ml, 15 hr) was “greater than 40%”. The “concentration giving maximal JNK activation” value (JNK) was 1 ng/mL, the “time of peak JNK activity” value (JNK) was 10 to 15 min and the JNK activation (JNK; 0.1 ng/ml) was “greater than four-fold”. For the same substance, the “concentration required to stimulate p42/p44 MAPK 2-3 fold” value (p42/p44 MAPK) was “Greater than 10 ng/ml”, the “time to maximal stimulation of p42/p44 MAPK activity” value (p42/p44 MAPK) was 5 to 10 min and the “MAPK activity stimulated above basal” value (p42/p44 MAPK; 1 ng/ml) was 20%. The “effect on bFGF stimulation of MAPK activity” value (p42/p44 MAPK; L929 cells) was “little or no effect on bFGF stimulation of MAPK activity”, the MAPK activity (p42/p44 MAPK; L929 cells, TNFα 1 ng/ml where stated) was “only modest stimulatory effects” and the B-Raf activation (B-Raf) was “does not significantly activate”. The C-Raf activation (C-Raf) was “does not significantly activate”.
